The record followed here is ChEMBL document CHEMBL3217658, “Scaffold-hopping from aminoglycosides to small synthetic inhibitors of bacterial protein biosynthesis using a pseudoreceptor model” (Medchemcomm, 2011).

The test system of experiment [1] is Bacillus subtilis. Description: Antibacterial activity against Bacillus subtilis 168 assessed as growth inhibition after 20 hrs by microtiter broth dilution method. It is filed as functional. The note with it: subsp. subtilis str. 168, 20 h. For orientation: Dilution methods test growth across graded concentrations, often in twofold steps.
Another experiment has as its system Escherichia coli. The experiment in a line: Binding affinity to Escherichia coli ribosomal A-site assessed as inhibition of GFP biosynthesis at 500 uM by transcription/translation assay relative to chloramphenicol.
Experiment [2] concerns Bacillus subtilis. The experiment in a line: Antibacterial activity against Bacillus subtilis 168 assessed as growth inhibition at 0.5 to 500 uM after 20 hrs by microtiter broth dilution method. The experiment is classed as functional, organism-based. The note with it: subsp. subtilis str. 168.
The target of experiment [3] is Transient receptor potential cation channel subfamily V member 1 (Homo sapiens, UniProt Q8NER1). Description: Inhibition of TRPV1-mediated membrane currents in human DRG neurons.

Structures are written as SMILES. ≈ marks a conversion by molar mass, not a printed value. Calls of active or inactive are those of the source. No cut-off for these calls is given here.

Sequence of Transient receptor potential cation channel subfamily V member 1 (Q8NER1 whole entry): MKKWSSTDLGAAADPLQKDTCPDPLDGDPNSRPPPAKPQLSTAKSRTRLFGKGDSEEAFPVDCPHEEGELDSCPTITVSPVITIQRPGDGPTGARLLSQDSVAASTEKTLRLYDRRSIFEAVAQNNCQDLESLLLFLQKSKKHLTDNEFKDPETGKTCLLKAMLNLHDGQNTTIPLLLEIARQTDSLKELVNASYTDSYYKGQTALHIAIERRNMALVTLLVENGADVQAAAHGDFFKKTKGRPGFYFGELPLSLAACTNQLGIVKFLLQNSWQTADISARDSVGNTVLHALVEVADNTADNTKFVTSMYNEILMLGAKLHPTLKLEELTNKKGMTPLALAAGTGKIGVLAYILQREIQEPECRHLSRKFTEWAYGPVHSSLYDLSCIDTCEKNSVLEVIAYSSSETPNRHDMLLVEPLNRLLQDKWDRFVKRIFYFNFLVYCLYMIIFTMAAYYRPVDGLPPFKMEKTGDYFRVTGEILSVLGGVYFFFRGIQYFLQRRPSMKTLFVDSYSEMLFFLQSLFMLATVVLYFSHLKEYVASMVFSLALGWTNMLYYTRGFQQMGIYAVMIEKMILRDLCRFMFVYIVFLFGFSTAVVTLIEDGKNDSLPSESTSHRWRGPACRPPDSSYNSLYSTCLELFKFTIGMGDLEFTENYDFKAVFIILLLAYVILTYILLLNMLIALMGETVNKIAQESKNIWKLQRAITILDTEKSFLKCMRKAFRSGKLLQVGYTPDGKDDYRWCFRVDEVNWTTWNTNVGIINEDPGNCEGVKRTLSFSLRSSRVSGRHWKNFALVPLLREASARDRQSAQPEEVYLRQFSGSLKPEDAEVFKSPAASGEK

`COc1cc(CNCCc2c[nH]c3ccccc23)ccc1OCc1ccc(Cl)nc1`: the minimal inhibitory concentration (MIC) (as a rule, the lowest concentration found to suppress growth) in the experiment with Bacillus subtilis [1] was 250 µM (≈ 105 µg/mL).
For the compound `COc1cc(CNCCc2c[nH]c3ccccc23)ccc1OCc1ccc(F)cc1`, the minimal inhibitory concentration (MIC) with Bacillus subtilis [1] was determined as 63 µM (≈ 25.5 µg/mL).
With `COc1cc(CNCCc2c[nH]c3ccccc23)cc(Cl)c1OCC(N)=O`, the inhibition (in general, how much of the control response was suppressed) with Escherichia coli stood at 82%. In the experiment on Bacillus subtilis [2], the “growth inhibition (GI)” value was “inactive”.
For the compound `NC[C@@H]1O[C@H](O[C@H]2[C@@H](O)[C@H](O[C@@H]3[C@@H](O)[C@H](N)C[C@H](N)[C@H]3O[C@H]3O[C@H](CN)[C@@H](O)[C@H](O)[C@H]3N)O[C@@H]2CO)[C@H](N)[C@@H](O)[C@@H]1O` [FRAMYCETIN], in experiment [3], the IC50 (as a rule, the concentration at which inhibition is half-maximal) amounted to 400 nM.
For the compound `COc1cc(CNC(=O)CCCC/C=C/C(C)C)ccc1O` [CAPSAICIN], the minimum inhibitory concentration (MIC) in the experiment on Bacillus subtilis [1] stood at 63 µM (≈ 19.2 µg/mL).
Turning to `COc1cccc(CNCCc2c[nH]c3ccccc23)c1OCc1ccccc1F`, in the experiment with Bacillus subtilis [1], the MIC amounted to 125 µM (≈ 50.6 µg/mL). In the experiment on Escherichia coli, the inhibition was determined as 71%.
Regarding `CC(O)CNCCNCc1cccc2ccccc12` (configuration not stated), the inhibition in the experiment on Escherichia coli amounted to 64%.
As to `OCC(O)C(O)C(O)C(O)C1NNC(=S)NN1` (configuration not stated), the inhibition entry with Escherichia coli was “inactive”.
As for `CC(=O)N1[C@H](CO)CS[C@@H]1[C@H](O)[C@@H](O)[C@@H](O)[C@H](O)CO`, the inhibition entry in the experiment with Escherichia coli is “inactive”.
In the case of `CC(O)CNCCNCc1ccccc1` (configuration not stated), the inhibition in the experiment on Escherichia coli came out at 36%.
As for `CNCCCNCc1ccc(OCC(N)=O)c(OC)c1`, in the experiment with Escherichia coli, the inhibition entry is “inactive”.
Regarding `NC(=O)c1ncn([C@H]2C[C@@H](CO)[C@H](O)[C@@H]2O)n1`, the inhibition result in the experiment with Escherichia coli is “inactive”.
`Nc1[nH]c(C2OC(CO)C(O)C2O)nc1C(=O)NCc1ccccc1` (configuration not stated): in the experiment on Escherichia coli, the inhibition came to 22%.
With `Nc1cc(NC2OC(CO)C(O)C(O)C2O)ccc1[N+](=O)[O-]` (configuration not stated), the inhibition with Escherichia coli was 61%.
As to `O=c1[nH]c(=O)n2c(c1[N+](=O)[O-])NC(C(O)C(O)C(O)CO)C2O` (configuration not stated), in the experiment on Escherichia coli, the inhibition was 13%.
